Laboratory results published in US20150202329A1, “Methods and Composition for Detecting Intestinal Cell-Barrier Dysfunction” (priority 2012, published 2015).
Entries after “also recorded” stand apart in the source; their conditions may differ.

Columns and labels:
IL-10 KO mice [1] = test: IEC extrusion measured as epithelial gap density by confocal endomicroscopy in IL-10 KO mice; format: in vivo, mouse; conditions: 10 mg/kg intraperitoneal, 4, 7 and 10 days
Protocol: (§1) To evaluate the effect of caspase-1 inhibition on IEC extrusion over time in vivo, we treated the IL-10 KO mice with a selective caspase-1 inhibitor Ac-YVAD-CMK (10 mg/kg) over 4, 7 and 10 day (5 times the mean lifespan of rodent)enterocytes^40) via intraperitoneal injections. The control IL-10 KO group received 10 days of equal volume of 2% (v/v) DMSO.
Confocal laser endomicroscopy of the mouse ileum and confocal microscopy of whole mount mouse intestinal tissues for determination of epithelial gap density were performed using previously described methods. Cell culture, human and mouse intestinal slides were imaged using a spinning disc confocal microscope (Quorum Technologies Inc, Guelph, ON) using previously described methods.

T84 monolayers [2] = test: Trans-epithelial electrical resistance (TER) of T84 monolayers; format: cell-based, human
Excerpt: (§2) To determine whether this form of cell extrusion results in loss of barrier function, we measured the trans-epithelial electrical resistance (TER). […] Given that the breach in the T84 monolayers appeared to be 1-2 μm in diameter on TEM images, we evaluated the epithelial integrity to microparticles (1 μm Fluoresbrite® Microspheres) and microbes (E. coli […]) using the lowest dose of nigericin treatment. […] Fluoresbrite microspheres and E. coli TMW2.497 were recovered in the media from basolateral well.
T84 human colon cancer epithelial cells were maintained in tissue culture plates (10 cm) in Dulbecco's minimal essential medium (DMEM)/F-12, 10% (v/v) heat-inactivated fetal bovine serum (FBS), 1%(w/v) penicillin-streptomycin. The cells were plated onto Transwells (2×10^5 cells/well, 6.5 mm diameter; 0.4 μm-pore size; Corning Life Sciences, Tewksbury, Mass.) and grown until development of apical junctional complexes (as indicated by a transepithelial resistance of >2,000 Ω·cm^2) for studies. For caspase-1 inhibition experiment, prior to nigericin treatment, the tissue culture medium was removed and fresh medium with 50 µM caspase-1 inhibitor (Ac-YVAD-CMK) was introduced. Nigericin (10, 25, 50 µM) was added to both the apical and basolateral aspect of the Transwell. […] For microspheres and […] experiments, after overnight incubation with nigericin, 10^7/ml of 1 μm Microspheres or 10^9/ml E. coli TMW2.497 were added to the apical aspect of Transwell. One hour after incubation with the microspheres or E. coli, the cells were fixed in cold methanol for 5 minutes. Cells were then permeabilized in 0.2%(v/v) Triton X-100 for 15 min and blocked for one hour in PBS with 0.2% (v/v) goat serum and 1%(w/v) BSA.

IL-10 KO mice [3] = test: Permeation of orogavaged 0.5 μm microspheres into blood of IL-10 KO mice; format: in vivo, mouse; conditions: 10 mg/kg, day 7
Protocol: as §1
For microsphere studies, mice were gavaged with a mixture containing 10^7 Fluoresbrite® YG Microspheres with diameter of 0.5, 1.0, 2.0, 3.0, and 6.0 μm in 200 μl solution as previously described after an overnight fast. Blood samples were collected 4 hours post-administration of the beads. Whole blood mixture was then centrifuged at 1,250×g in pre-heparinized tubes for 10 min at RT, the plasma portion of the samples were removed and centrifuged at 1,250×g for 5 min before flow cytometry analysis. The remaining buffy coat and hematocrit of the samples were lysed with 5 mL of lysing buffer (4.15 g NH4Cl, 0.84 g NaHCO3, 1 ml […] EDTA at pH 8, and 500 mL of ddH2O) at RT, mixed and centrifuged at 1,250×g for 5 min at 4° C.×3. The supernatant was discarded. The WBC pellet was re-suspended in 400 μl of 0.03% PBS with Fetal Bovine Albumin. The plasma and WBC pellet samples were analyzed with flow cytometry for determination of microsphere counts.

T84 monolayers [4] = test: Movement of microspheres and E. coli across the T84 monolayer in Transwell; format: cell-based, human; conditions: nigericin 10 μM overnight (lowest dose)
Excerpt: as §2
T84 human colon cancer epithelial cells were maintained in tissue culture plates (10 cm) in Dulbecco's minimal essential medium (DMEM)/F-12, 10% (v/v) heat-inactivated fetal bovine serum (FBS), 1%(w/v) penicillin-streptomycin. The cells were plated onto Transwells (2×10^5 cells/well, 6.5 mm diameter; 0.4 μm-pore size; Corning Life Sciences, Tewksbury, Mass.) and grown until development of apical junctional complexes (as indicated by a transepithelial resistance of >2,000 Ω·cm^2) for studies. For caspase-1 inhibition experiment, prior to nigericin treatment, the tissue culture medium was removed and fresh medium with 50 µM caspase-1 inhibitor (Ac-YVAD-CMK) was introduced. […] Transepithelial resistance (TER) was measured at before and 3 h after Nigericin treatment, using a Millicell-ERS Voltmeter and chopstick electrodes (Millipore, Bedford, Mass.). […]

[5] = in vivo; cited from earlier work
polarized T84 monolayers = test: Caspase-1 activation and cell extrusion in nigericin-treated polarized T84 monolayers (FLICA 1 staining, Western blot); format: cell-based, human
Excerpt: To investigate the morphology of caspase-1-induced IEC extrusion, we applied nigericin, a well-established Nlrp3-dependent inflammasome activator to polarized T84 monolayers. […] Active caspase-1 expression in nigericin-treated T84 cells was confirmed by Western blot analysis (FIG. 1b).
T84 human colon cancer epithelial cells were maintained in tissue culture plates (10 cm) in Dulbecco's minimal essential medium (DMEM)/F-12, 10% (v/v) heat-inactivated fetal bovine serum (FBS), 1%(w/v) penicillin-streptomycin. The cells were plated onto Transwells (2×10^5 cells/well, 6.5 mm diameter; 0.4 μm-pore size; Corning Life Sciences, Tewksbury, Mass.) and grown until development of apical junctional complexes (as indicated by a transepithelial resistance of >2,000 Ω·cm^2) for studies. For caspase-1 inhibition experiment, prior to nigericin treatment, the tissue culture medium was removed and fresh medium with 50 µM caspase-1 inhibitor (Ac-YVAD-CMK) was introduced. Nigericin (10, 25, 50 µM) was added to both the apical and basolateral aspect of the Transwell. Transepithelial resistance (TER) was measured at before and 3 h after Nigericin treatment, using a Millicell-ERS Voltmeter and chopstick electrodes (Millipore, Bedford, Mass.). […]

Compound	IEC extrusion as epithelial gap density (IL-10 KO mice [1])	reversal of nigericin-induced TER reduction measured by ECIS (T84 monolayers [2]; nigericin 25 μM, overnight)	reversal of nigericin-induced TER reduction / barrier dysfunction (T84 monolayers [2]; pre-treatment with caspase-1 inhibitor, nigericin 25 μM, 3 hours and overnight)	permeation of orogavaged 0.5 μm latex microspheres into blood (IL-10 KO mice [3])	TER of T84 monolayers (barrier function) (T84 monolayers [2]; nigericin 10, 25, 50 μM, 3 h)	TER as measured by ECIS over time (T84 monolayers [2]; nigericin, overnight)	movement of 1 μm microspheres and E. coli TMW2.497 across the monolayer (T84 monolayers [4])	systemic toxicity [5]	active caspase-1 (p10) expression by Western blot (polarized T84 monolayers; nigericin 50 μM, T84 cells)	activated caspase-1 and cell extrusion by FLICA 1 staining (polarized T84 monolayers; nigericin, 3-hours post-treatment)
Ac-YVAD-CMK	Time-dependent reduction in IEC extrusion	reversed	reversed; also recorded: abrogated	normalization of permeation						
CO[C@@H]1C[C@@H](C[C@H]2CC[C@H](C)[C@H]([C@@H](C)C(=O)O)O2)O[C@]2(O[C@](C)([C@H]3CC[C@@](C)([C@@H]4O[C@@H]([C@H]5O[C@@](O)(CO)[C@H](C)C[C@@H]5C)C[C@@H]4C)O3)C[C@H]2C)[C@@H]1C [nigericin, Nigericin]					dose-dependent reduction in TER; also recorded: dose-dependent barrier dysfunction developed	time-dependent reduction in TER	Movements of microspheres and E. coli from the upper chamber through the monolayer to the lower chamber of the Transwell were observed	significant systemic toxicity	increased active caspase-1 (p10) expression	increased activated caspase-1 and cell extrusion
